Assay results from patent publication US20220324808A1, “Co-crystal of Compound I Dihydrochloride and Preparation Method and Use Thereof” (CRYSTAL PHARMACEUTICAL (SUZHOU) CO., LTD., priority 2020, published 2022).
Read-outs that look alike come from different tables or passages of the source.

Experiments:
[1] = Compressibility (manual tablet press, tensile strength); assay type: physicochemical; details: 10 KN
Method: A manual tablet press was used for compression. 60 mg of Form CSIII and prior art Form A were weighed and added into the dies of a φ6 mm round tooling, compressed at 10 KN manually, then stored at room temperature for 24 h until complete elastic recovery, diameter (D) and thickness (L) were tested with a caliper. Hardness (H) was tested with an intelligent tablet hardness tester. Tensile strength of the powder was calculated with the following formula: T=2H/πDL. Under a certain force, the greater the tensile strength, the better the compressibility.

[2] = Mechanical stability: manual grinding, XRPD before and after; assay type: physicochemical; details: ground manually for 5 minutes in mortar
Method: Solid sample of prior art Form A, Form CSI and Form CSIII of the present disclosure were separately grounded manually for 5 minutes in mortars. The XRPD patterns overlay before and after grinding is shown in FIG. 14, FIG. 15 and FIG. 16.

[3] = Adhesiveness (material sticking to the punch); assay type: physicochemical; details: 30 mg, φ8 mm round tooling, 10 KN; for Maximum amount (mg) of material sticking to the punch: held 30 s
Method: 30 mg of Form CSI, Form CSIII and prior art Form A were weighed and then added into the dies of φ8 mm round tooling, compressed at 10 KN and held for 30 s. The punch was weighed and the amount of material sticking to the punch was calculated. The compression was repeated twice and the maximum amount of material sticking to the punch during the compression were recorded.

[4] = cited from earlier work; for crystalline form conversion at low humidity: under 5% RH
[5] = heated to 75-100° C.; WO2014152270A1; cited from earlier work
[6] = Storage stability of drug substance (crystalline form by XRPD, chemical impurity by HPLC); assay type: physicochemical
Description: (§1) Crystalline form and chemical impurity were checked by XRPD and HPLC, respectively.
as §1

[7] = Humidity stability by DVS; assay type: physicochemical; details: humidity range 0-95% RH, XRPD before and after
Method: Dynamic Vapor Sorption (DVS) was measured via an SMS (Surface Measurement Systems Ltd.) intrinsic DVS instrument. Typical Parameters for DVS test are as follows:
Gas and flow rate: nitrogen, 200 mL/min
Rate of mass change: 0.002%/min
RH range: 0% RH to 95% RH
DVS was applied to test the stability of Form CSI under different humidity with about 10 mg of samples. The weight change at each relative humidity were recorded in a humidity range of 0-95% RH.
DVS was applied to test the stability of Form CSIII under different humidity with about 10 mg of samples. The weight change at each relative humidity were recorded in a humidity range of 0-95% RH.

[8] = Mechanical stability: tableting under different pressure, XRPD; assay type: physicochemical; details: 5 kN, 10 kN, 20 kN pressure
Description: A certain amount of Form CSI and Form CSIII were compressed into tablets under 5 kN, 10 kN, 20 kN pressure with suitable tableting die. Crystalline form before and after tableting were checked by XRPD.

[9] = Crystalline form before and after formulation process (XRPD); assay type: physicochemical; details: dry granulation and tableting
Description: The formulation and preparation process of Form CSI and Form CSIII are shown in Table 16 and Table 17, respectively.

[10] = 60 mg, φ6 mm round tooling, after 24 h
[11] = 25° C./60% RH (sealed), 6 Months
[12] = 40° C./75% RH (sealed), 6 Months
[13] = 60° C./75% RH (sealed), 1 Month

COC(=O)N1CCN(Cc2cccc(NC(=O)Nc3ccc(C)nc3)c2F)CC1.Cl.Cl.O [Form A]
Diameter (mm) [1, 10]: 6.00 mm | Hardness (kgf) [1, 10]: 3.38 kgf | Thickness (mm) [1, 10]: 1.67 mm | Tensile strength (MPa) ([1]; T=2H/πDL): 2.11 MPa | crystal form and crystallinity after grinding [2]: crystallinity of prior art Form A decreases after grinding | Maximum amount (mg) of material sticking to the punch [3]: 2.83 mg | weight loss ([4]; DVS, between about 30% RH and about 5% RH, WO2014152270A1): about 2.7 wt % | total weight gain ([4]; DVS, between about 40% RH and about 95% RH, WO2014152270A1): about 0.55 wt % | crystalline form conversion at low humidity [4]: converted to dehydrated state Form C | crystalline form conversion at low humidity ([4]; listed as prior art Form A): converted to Form C | crystalline form conversion on heating [5]: converts to Form B

COC(=O)N1CCN(Cc2cccc(NC(=O)Nc3ccc(C)nc3)c2F)CC1.COC(=O)N1CCN(Cc2cccc(NC(=O)Nc3ccc(C)nc3)c2F)CC1.Cl.Cl.Cl.Cl.O=C(O)/C=C/C(=O)O [Form CSI]
Purity (%) ([6]; 25° C./60% RH (open), 6 Months): 99.66% | Solid Form ([6]; 25° C./60% RH (open), 6 Months): Form CSI | Purity (%) [6, 11]: 99.65% | Solid Form [6, 11]: Form CSI | storage stability (in words) ([6]; 25° C./60% RH and 40° C./75% RH): stable for at least six months | Purity (%) ([6]; 40° C./75% RH (open), 6 Months): 99.65% | Solid Form ([6]; 40° C./75% RH (open), 6 Months): Form CSI | Purity (%) [6, 12]: 99.64% | Solid Form [6, 12]: Form CSI | storage stability (in words) ([6]; 60° C./75% RH): stable for at least one month | Purity (%) [6, 13]: 99.70% | Solid Form [6, 13]: Form CSI | Purity (%) ([6]; Initial): 99.71% | Solid Form ([6]; Initial): Form CSI | crystalline state after DVS test [7]: remains unchanged | crystal form and crystallinity after grinding [2]: no crystal transformation and the crystallinity almost has no change after grinding | crystalline form after tableting [8]: no crystal transformation after tableting under different pressure | maximum amount relative to that of the prior art Form A [3]: less than ⅕ | Maximum amount (mg) of material sticking to the punch [3]: 0.48 mg | crystalline form before and after the formulation process [9]: remain stable before and after the formulation process
